The numbers were not newly measured in paper PMC9851200, “Multiparameter phenotypic screening for endogenous TFEB and TFE3 translocation identifies novel chemical series modulating lysosome function” (Autophagy, 2022), which cites them from elsewhere.

Holding throughout (parameters): method as in original PKIS2 published data
The target in data set [1] is kinases (KINOMEscan panel) (Homo sapiens, UniProt Q96RR4). The note with it: CAMKK2; Published KINOMEscan; ref original PKIS2 published data; cited from earlier work.
Chain of kinases (KINOMEscan panel) (Homo sapiens, UniProt Q96RR4) (Q96RR4 whole entry): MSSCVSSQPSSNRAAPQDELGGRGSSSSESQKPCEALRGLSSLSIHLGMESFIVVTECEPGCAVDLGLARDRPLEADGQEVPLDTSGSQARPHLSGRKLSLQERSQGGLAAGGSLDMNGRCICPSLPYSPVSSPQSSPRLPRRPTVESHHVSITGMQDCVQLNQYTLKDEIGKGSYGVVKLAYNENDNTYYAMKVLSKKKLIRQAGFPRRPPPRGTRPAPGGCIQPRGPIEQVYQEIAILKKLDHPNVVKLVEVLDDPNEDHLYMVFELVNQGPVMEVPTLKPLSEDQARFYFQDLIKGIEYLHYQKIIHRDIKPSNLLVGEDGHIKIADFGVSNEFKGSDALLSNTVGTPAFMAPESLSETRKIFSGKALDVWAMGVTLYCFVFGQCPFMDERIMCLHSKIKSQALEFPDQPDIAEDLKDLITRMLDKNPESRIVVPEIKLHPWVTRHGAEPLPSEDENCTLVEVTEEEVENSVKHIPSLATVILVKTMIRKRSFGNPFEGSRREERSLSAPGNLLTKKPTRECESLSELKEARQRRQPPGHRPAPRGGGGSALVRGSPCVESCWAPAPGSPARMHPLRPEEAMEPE
The target of data set [2] is kinases (KINOMEscan panel) (Homo sapiens, UniProt P41240). The note with it: kinase CSK; Published KINOMEscan; ref original PKIS2 published data; cited from earlier work.
For data set [3], the target named is kinases (KINOMEscan panel) (Homo sapiens, UniProt P57059). To be noted: kinase SIK1; Published KINOMEscan; ref original PKIS2 published data; cited from earlier work.
Chain of kinases (KINOMEscan panel) (Homo sapiens, UniProt P57059) (P57059 whole entry): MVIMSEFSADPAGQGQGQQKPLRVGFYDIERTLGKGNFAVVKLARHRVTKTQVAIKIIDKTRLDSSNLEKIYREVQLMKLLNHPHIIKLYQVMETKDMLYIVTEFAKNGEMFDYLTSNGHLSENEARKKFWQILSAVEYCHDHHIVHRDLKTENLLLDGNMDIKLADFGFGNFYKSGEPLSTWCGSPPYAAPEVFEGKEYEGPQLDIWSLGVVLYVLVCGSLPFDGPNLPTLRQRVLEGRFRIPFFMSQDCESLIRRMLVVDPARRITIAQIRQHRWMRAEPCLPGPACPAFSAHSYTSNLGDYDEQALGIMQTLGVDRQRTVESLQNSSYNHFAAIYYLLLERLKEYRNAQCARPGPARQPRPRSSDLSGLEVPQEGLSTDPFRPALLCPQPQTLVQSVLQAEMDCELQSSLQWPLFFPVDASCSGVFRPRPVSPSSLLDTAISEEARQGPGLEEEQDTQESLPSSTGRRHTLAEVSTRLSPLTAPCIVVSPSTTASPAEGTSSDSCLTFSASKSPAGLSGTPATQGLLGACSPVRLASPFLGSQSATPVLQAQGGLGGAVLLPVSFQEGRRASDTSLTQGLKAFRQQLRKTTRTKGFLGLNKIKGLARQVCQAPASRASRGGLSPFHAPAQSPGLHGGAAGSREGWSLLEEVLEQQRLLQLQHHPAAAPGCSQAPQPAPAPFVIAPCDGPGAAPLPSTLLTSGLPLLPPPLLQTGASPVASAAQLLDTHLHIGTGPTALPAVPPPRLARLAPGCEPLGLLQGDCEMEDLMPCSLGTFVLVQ
Data set [4] addresses kinases (KINOMEscan panel) (Homo sapiens, UniProt P11802). To be noted: Published KINOMEscan, ref original PKIS2 published data, cited from earlier work.
Data set [5] deals with kinases (KINOMEscan panel) (Homo sapiens, UniProt Q00535). To be noted: Published KINOMEscan; ref original PKIS2 published data; cited from earlier work.
Chain of kinases (KINOMEscan panel) (Homo sapiens, UniProt Q00535) (Q00535 whole entry): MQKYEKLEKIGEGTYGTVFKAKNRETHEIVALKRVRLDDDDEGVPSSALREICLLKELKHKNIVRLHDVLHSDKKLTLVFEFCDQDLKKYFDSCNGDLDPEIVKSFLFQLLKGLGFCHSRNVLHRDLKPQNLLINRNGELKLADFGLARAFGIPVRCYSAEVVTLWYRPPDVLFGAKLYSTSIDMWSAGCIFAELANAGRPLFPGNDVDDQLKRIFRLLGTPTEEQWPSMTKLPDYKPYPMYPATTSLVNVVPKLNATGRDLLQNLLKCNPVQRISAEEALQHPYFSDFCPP
Data set [6] deals with kinases (KINOMEscan panel) (Homo sapiens, UniProt Q13627). To be noted: Published KINOMEscan; ref original PKIS2 published data; cited from earlier work.
The target of data set [7] is T1, kinases (KINOMEscan panel) (Homo sapiens, UniProt O15146).
T1 sequence (O15146 24-869): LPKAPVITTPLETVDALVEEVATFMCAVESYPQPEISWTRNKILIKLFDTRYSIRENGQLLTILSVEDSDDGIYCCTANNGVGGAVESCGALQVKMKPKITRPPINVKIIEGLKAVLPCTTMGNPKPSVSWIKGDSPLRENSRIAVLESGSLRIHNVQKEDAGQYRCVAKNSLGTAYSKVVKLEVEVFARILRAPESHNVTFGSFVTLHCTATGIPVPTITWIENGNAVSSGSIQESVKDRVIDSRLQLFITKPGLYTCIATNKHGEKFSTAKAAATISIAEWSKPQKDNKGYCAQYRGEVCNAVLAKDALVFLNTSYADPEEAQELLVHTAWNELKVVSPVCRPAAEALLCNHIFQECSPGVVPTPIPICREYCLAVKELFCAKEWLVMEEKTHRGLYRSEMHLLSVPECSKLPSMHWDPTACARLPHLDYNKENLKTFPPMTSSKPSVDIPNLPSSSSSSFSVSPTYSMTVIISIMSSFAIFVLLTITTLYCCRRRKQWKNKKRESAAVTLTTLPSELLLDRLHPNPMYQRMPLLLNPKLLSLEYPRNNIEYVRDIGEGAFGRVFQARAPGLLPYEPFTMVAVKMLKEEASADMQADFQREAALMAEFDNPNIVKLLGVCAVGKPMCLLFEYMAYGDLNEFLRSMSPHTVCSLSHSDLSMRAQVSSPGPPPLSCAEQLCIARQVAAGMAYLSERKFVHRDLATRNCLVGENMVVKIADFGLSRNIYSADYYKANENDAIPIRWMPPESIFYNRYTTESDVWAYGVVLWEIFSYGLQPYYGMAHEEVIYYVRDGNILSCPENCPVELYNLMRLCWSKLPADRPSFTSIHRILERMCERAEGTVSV
To be noted: MUSK; Published KINOMEscan; ref original PKIS2 published data; cited from earlier work.

Data set [8] addresses kinases (KINOMEscan panel) (Homo sapiens, UniProt P08069). To be noted: kinase IGF1R; Published KINOMEscan; ref original PKIS2 published data; cited from earlier work.
The target in data set [9] is kinases (KINOMEscan panel) (Homo sapiens, UniProt Q9H4A3). The note with it: Published KINOMEscan; ref original PKIS2 published data; cited from earlier work.
The target of data set [10] is kinases (KINOMEscan panel) (Homo sapiens, UniProt Q16584). The note with it: kinase MAP3K11; Published KINOMEscan; ref original PKIS2 published data; cited from earlier work.
Data set [11] has as its target kinases (KINOMEscan panel) (Homo sapiens, UniProt P49759). To be noted: kinase CLK1; Published KINOMEscan; ref original PKIS2 published data; cited from earlier work.
Data set [12] deals with kinases (KINOMEscan panel) (Homo sapiens, UniProt P48729). The note with it: CSNK1A1; Published KINOMEscan; ref original PKIS2 published data; cited from earlier work.
Chain of kinases (KINOMEscan panel) (Homo sapiens, UniProt P48729) (P48729 whole entry): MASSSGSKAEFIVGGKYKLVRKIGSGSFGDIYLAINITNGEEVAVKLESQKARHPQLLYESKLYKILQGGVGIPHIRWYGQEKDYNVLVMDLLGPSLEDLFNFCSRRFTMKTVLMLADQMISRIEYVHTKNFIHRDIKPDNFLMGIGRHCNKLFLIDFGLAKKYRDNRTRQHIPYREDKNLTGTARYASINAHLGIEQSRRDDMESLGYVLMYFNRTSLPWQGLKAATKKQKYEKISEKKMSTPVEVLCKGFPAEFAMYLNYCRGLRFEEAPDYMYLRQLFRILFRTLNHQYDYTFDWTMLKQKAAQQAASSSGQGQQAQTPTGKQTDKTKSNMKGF
The target in data set [13] is kinases (KINOMEscan panel) (Homo sapiens, UniProt Q9HBH9). The note with it: MKNK2; Published KINOMEscan; ref original PKIS2 published data; cited from earlier work.
Data set [14] concerns the target kinases (KINOMEscan panel) (Homo sapiens, UniProt P53350). To be noted: PLK1; Published KINOMEscan; ref original PKIS2 published data; cited from earlier work.
Data set [15] concerns the target kinases (KINOMEscan panel) (Homo sapiens, UniProt Q9BUB5). To be noted: Published KINOMEscan; ref original PKIS2 published data; cited from earlier work.

Chain of kinases (KINOMEscan panel) (Homo sapiens, UniProt P11802) (P11802 whole entry): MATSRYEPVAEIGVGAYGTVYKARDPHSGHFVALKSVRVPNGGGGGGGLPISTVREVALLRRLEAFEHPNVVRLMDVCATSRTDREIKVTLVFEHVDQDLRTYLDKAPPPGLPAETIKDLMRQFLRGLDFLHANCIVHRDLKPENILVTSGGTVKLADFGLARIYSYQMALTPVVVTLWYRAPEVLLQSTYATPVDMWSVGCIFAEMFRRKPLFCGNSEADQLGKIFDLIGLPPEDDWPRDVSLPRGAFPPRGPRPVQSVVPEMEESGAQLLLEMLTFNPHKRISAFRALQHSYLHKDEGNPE
Chain of kinases (KINOMEscan panel) (Homo sapiens, UniProt P53350) (P53350 whole entry): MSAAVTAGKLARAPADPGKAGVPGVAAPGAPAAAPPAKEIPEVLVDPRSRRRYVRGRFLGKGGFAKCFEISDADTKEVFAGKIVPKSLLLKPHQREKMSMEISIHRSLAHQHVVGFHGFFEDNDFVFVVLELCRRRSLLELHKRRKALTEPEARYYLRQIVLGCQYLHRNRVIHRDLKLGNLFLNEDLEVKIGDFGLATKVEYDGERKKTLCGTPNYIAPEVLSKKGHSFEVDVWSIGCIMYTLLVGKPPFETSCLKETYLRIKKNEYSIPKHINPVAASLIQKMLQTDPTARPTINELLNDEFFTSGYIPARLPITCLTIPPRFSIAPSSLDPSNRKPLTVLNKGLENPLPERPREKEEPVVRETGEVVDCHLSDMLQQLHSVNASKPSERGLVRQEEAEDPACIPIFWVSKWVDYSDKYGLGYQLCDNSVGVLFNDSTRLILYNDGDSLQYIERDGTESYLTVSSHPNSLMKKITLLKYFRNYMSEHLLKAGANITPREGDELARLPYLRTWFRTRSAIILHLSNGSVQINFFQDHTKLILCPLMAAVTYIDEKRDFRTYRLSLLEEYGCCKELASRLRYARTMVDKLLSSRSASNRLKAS
Chain of kinases (KINOMEscan panel) (Homo sapiens, UniProt P08069) (P08069 31-1367): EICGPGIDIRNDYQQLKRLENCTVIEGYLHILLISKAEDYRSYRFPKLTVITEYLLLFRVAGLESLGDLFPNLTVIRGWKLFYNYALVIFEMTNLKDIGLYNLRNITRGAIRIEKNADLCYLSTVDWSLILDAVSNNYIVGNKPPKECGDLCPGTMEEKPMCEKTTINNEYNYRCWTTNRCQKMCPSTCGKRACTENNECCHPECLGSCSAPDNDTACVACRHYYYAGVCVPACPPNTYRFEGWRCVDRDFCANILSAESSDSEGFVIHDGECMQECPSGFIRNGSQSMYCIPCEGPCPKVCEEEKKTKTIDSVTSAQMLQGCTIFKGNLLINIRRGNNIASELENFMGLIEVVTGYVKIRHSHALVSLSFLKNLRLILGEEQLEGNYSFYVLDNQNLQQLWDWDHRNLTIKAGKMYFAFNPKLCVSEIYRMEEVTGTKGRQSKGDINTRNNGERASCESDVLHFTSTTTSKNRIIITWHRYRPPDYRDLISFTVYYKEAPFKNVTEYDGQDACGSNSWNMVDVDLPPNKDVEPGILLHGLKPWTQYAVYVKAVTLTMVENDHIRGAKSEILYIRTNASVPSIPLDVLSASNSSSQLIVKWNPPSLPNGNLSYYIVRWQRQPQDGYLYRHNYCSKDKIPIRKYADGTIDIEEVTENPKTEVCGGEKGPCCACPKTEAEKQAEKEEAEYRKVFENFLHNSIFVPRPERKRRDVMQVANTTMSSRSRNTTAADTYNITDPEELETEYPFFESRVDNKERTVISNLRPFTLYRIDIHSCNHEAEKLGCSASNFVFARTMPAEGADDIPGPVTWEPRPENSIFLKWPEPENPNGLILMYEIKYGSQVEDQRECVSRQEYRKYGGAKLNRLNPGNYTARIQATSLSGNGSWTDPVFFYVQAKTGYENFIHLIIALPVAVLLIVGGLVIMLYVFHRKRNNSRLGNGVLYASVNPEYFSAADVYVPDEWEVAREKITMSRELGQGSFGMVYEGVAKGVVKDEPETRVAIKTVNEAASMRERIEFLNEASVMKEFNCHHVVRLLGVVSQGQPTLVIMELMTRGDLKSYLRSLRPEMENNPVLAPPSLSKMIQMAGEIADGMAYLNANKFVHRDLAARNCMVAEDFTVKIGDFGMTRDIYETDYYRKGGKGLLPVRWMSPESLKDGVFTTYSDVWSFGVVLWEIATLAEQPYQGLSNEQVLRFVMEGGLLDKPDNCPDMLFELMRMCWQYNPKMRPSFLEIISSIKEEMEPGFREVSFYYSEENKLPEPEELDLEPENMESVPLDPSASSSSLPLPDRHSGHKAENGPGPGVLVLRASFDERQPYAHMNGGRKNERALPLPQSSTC
Chain of kinases (KINOMEscan panel) (Homo sapiens, UniProt Q9BUB5) (Q9BUB5 whole entry): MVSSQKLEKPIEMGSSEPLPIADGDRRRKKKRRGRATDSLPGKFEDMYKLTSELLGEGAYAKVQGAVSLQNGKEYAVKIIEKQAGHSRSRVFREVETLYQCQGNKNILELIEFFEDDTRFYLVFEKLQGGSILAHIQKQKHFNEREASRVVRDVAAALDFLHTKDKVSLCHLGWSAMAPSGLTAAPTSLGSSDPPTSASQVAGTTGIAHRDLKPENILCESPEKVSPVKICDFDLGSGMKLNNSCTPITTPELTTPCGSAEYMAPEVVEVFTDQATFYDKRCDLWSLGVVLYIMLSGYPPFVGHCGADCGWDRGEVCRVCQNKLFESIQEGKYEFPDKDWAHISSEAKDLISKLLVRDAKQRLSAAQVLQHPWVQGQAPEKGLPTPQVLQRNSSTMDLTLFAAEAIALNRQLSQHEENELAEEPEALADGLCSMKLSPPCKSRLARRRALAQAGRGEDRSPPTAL

On to `Cc1cccc(-c2nc(Nc3ccncc3)c3ccccc3n2)n1` [NK215], for which, in [1], the “KINOMEscan CAMKK2” value is on record as 7. The “KINOMEscan CSK” value in data set [2] was 4. Also, in data set [3], the “KINOMEscan SIK1” value was 4. In addition, the “KINOMEscan CDK4-cyclinD1 (???) CCND1” value in [4] (CDK4-cyclinD1 (???) CCND1) is on record as 13. In addition, the “KINOMEscan CDK4-cyclinD3” value in data set [4] (kinase CDK4-cyclinD3) was 0. In data set [4] (kinase CDK4), the “KINOMEscan CDK4” value is listed as 0. The “KINOMEscan CDK5” value in data set [5] was 0. In addition, in data set [6], the “KINOMEscan DYRK1A” value is listed as 0. The “KINOMEscan MUSK” value in data set [7] is 17. Besides, in data set [8], the “KINOMEscan IGF1R” value is on record as 0. Besides, in data set [9], the “KINOMEscan WNK1” value is given as 0. The “KINOMEscan MAP3K11” value in data set [10] is given as 6. Besides, the “KINOMEscan CLK1” value in data set [11] is on record as 10. For the same molecule, in [12], the “KINOMEscan CSNK1A1” value is 46. In addition, the “KINOMEscan MKNK2” value in data set [13] is listed as 0. In addition, the “KINOMEscan PLK1” value in data set [14] is listed as 6. For the same molecule, the “KINOMEscan MKNK1” value in data set [15] is 0.
